The results in this text go back to patent publication US20260201008A1, “SECRETIN-DERIVED GLP1R SELECTIVE AGONISTS” (GUBRA A/S, priority 2023, published 2026).

In data set [1] the target is GLP1R (Homo sapiens, UniProt P43220). As to the kind of experiment: hGLP1R potency, cAMP accumulation in CHO-K1 cells stably overexpressing hGLP1R. The class given is cell-based. Details: host or cells: CHO-K1. Particulars: for Selectivity: SCTR EC50/GLP1R EC50 ratio; for EC50: cAMP accumulation, CHO-K1 cells overexpressing hGLP1R. Put shortly: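 TR-FRET cAMP read-out, one hour after reagent addition, following 30 min compound exposure at RT in DPBS/0.05% casein/0.5 mM IBMX. Crude peptides: 5 points, 10-fold steps, n=1. Purified peptides: 11 points, 3-fold steps, n=2. EC50 fitted with a variable-slope sigmoid.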
A general note: Changes in cAMP serve as a functional read-out for many G protein-coupled receptors.

Data set [2] in a line: Turbidity of crude library peptides (absorbance at 600 nm). The class given is physicochemical. Particulars: Physical stability of peptides. Put shortly:
(§1)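 Fibril formation is scored as average ThT fluorescence from duplicate samples monitored for 72 h at 40° C with shaking stress. Turbidity is the absorbance at 600 nm taken before heating. Peptide concentration was 267 μM at pH 4.0 or pH 7.0.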

Data set [3] concerns the target SCTR (Homo sapiens, UniProt P47872). As to the kind of experiment: hSCTR potency, cAMP accumulation in CHO-K1 cells stably overexpressing hSCTR. Particulars: cAMP accumulation, CHO-K1 cells overexpressing hSCTR. The class given is cell-based. Details: alternatively Euroscreen ES-712-AF; FAST-0161L; host or cells: CHO-K1. The method, boiled down: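 CHO-K1/hSCTR cells; DPBS + 0.05% casein + 0.5 mM IBMX; 30 min RT stimulation; cAMP by TR-FRET read at 1 h. Crude peptides: 5-point 10-fold dilutions, n=1. Purified: 11-point 3-fold dilutions, n=2. EC50 via variable-slope fit.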

Data set [4] in a line: Fibril formation of crude library peptides (Thioflavin T). The class given is physicochemical. Details: key: average ThT fluorescence emission at 480 nm (ex 450 nm), raw units. Particulars: Physical stability of peptides. The method, boiled down: as §1
The mark [5] stands for this setting: read-out: pEC50 hGLPR1 (converted).
[6] abbreviates: read-out: pEC50 hSCTR (converted).

Like-named read-outs stand apart in the source and are kept apart here. Numbered stars: 1 amine (or outer) side, 2 acyl side, 3 side chain; on linkers, the order of the positions; unused ones are H or OH. Square brackets hold non-standard residues; d marks the D form. Side chains are listed from the residue outwards. Peptide text beside a SMILES is read from it. * marks the point of attachment. C20 diacid = O=C(O)CCCCCCCCCCCCCCCCCCC(=O)*; γGlu = O=C(O)[C@H](CCC(=O)[*:2])N[*:1]; AEEA = NCCOCCOCC(=O)O; Aib = CC(C)(N)C(=O)O

Chain of SCTR (P47872 23-440): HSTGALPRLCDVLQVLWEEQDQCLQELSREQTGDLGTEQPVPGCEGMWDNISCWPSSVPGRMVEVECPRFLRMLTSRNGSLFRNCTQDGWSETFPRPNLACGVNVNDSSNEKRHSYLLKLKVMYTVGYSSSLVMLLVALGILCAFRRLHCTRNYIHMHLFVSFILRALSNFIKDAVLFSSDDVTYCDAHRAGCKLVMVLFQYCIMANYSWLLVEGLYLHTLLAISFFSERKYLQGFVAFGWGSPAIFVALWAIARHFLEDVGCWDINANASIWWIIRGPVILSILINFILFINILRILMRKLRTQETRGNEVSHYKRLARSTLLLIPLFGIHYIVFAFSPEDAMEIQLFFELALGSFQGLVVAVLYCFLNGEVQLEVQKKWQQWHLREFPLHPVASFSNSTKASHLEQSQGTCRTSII
Chain of GLP1R (P43220 24-463): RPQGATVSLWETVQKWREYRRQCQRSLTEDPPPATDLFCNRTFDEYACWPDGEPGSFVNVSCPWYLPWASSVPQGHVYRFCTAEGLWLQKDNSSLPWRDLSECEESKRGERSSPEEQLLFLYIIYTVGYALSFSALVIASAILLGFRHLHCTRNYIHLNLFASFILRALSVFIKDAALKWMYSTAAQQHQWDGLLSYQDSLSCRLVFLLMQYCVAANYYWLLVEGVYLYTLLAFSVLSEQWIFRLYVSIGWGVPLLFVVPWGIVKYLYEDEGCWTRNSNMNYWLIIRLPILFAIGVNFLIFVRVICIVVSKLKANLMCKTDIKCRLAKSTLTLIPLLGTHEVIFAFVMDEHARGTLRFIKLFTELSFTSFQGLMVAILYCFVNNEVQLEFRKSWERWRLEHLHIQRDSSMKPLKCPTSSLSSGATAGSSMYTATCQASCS

`CC(C)C[C@H](NC(=O)[C@H](Cc1ccccc1)NC(=O)[C@H](CCCNC(=N)N)NC(=O)[C@H](CCC(N)=O)NC(=O)[C@@H](NC(=O)[C@H](C)NC(=O)[C@H](C)NC(=O)[C@@H](NC(=O)[C@H](CCC(=O)O)NC(=O)[C@H](CCCCNC(=O)COCCOCCNC(=O)COCCOCCNC(=O)CC[C@H](NC(=O)CCCCCCCCCCCCCCCCCCC(=O)O)C(=O)O)NC(=O)[C@H](CC(C)C)NC(=O)[C@H](CCC(=O)O)NC(=O)[C@H](CO)NC(=O)[C@@H](NC(=O)[C@H](CC(=O)O)NC(=O)[C@H](CO)NC(=O)[C@@H](NC(=O)[C@H](Cc1ccccc1)NC(=O)[C@@H](NC(=O)CNC(=O)[C@H](CCC(=O)O)NC(=O)C(C)(C)NC(=O)[C@@H](N)Cc1c[nH]cn1)[C@@H](C)O)[C@@H](C)O)C(C)C)[C@@H](C)O)[C@@H](C)O)C(=O)N[C@@H](CCC(=O)O)C(=O)N[C@@H](Cc1c[nH]cn1)C(=O)N[C@@H](CC(C)C)C(=O)N[C@H](C(N)=O)C(C)C` [compound 54] (H-H[Aib]EGTFTSDVSELK([AEEA-AEEA-γGlu-C20 diacid])ETAATQRFLEHLV-NH2): the Selectivity in data set [1] was found to be 11020. Also, the figures for the EC50 in data set [1] (setting [5]) and in data set [3] (setting [6]) were 0.0126 nM and 126 nM, respectively. The “Turbidity (pH 7)” value in data set [2] stood at 0.09. This molecule also yielded a Fibril formation in data set [4] of 7756.

In the case of `CC(C)C[C@H](NC(=O)[C@H](CCC(=O)O)NC(=O)[C@H](CCCCNC(=O)COCCOCCNC(=O)COCCOCCNC(=O)CC[C@H](NC(=O)CCCCCCCCCCCCCCCCCCC(=O)O)C(=O)O)NC(=O)[C@H](CC(C)C)NC(=O)[C@H](CCCNC(=N)N)NC(=O)[C@H](CO)NC(=O)[C@@H](NC(=O)[C@H](CC(=O)O)NC(=O)[C@H](CO)NC(=O)[C@@H](NC(=O)[C@H](Cc1ccccc1)NC(=O)[C@@H](NC(=O)CNC(=O)[C@H](CCC(=O)O)NC(=O)C(C)(C)NC(=O)[C@@H](N)Cc1c[nH]cn1)[C@@H](C)O)[C@@H](C)O)C(C)C)C(=O)N[C@@H](C)C(=O)N[C@@H](C)C(=O)N[C@@H](CO)C(=O)N[C@@H](CCC(N)=O)C(=O)N[C@@H](CCCNC(=N)N)C(=O)N[C@@H](Cc1ccccc1)C(=O)N[C@@H](CC(C)C)C(=O)N[C@@H](CCC(=O)O)C(=O)N[C@@H](Cc1c[nH]cn1)C(=O)N[C@@H](CC(C)C)C(=O)N[C@H](C(N)=O)C(C)C` [compound 19] (H-H[Aib]EGTFTSDVSRLK([AEEA-AEEA-γGlu-C20 diacid])ELAASQRFLEHLV-NH2), in data set [1], the Selectivity stood at 7342. Further, the EC50 in data set [1] (setting [5]) is 0.0794 nM; in data set [3] (setting [6]), 631 nM. Further, the “Turbidity (pH 7)” value in data set [2] is 0.10. This molecule also gave a Fibril formation in data set [4] of 170210.

Turning to `CC[C@H](C)[C@H](NC(=O)[C@H](Cc1ccccc1)NC(=O)[C@H](CCCNC(=N)N)NC(=O)[C@H](CCC(N)=O)NC(=O)[C@H](CC(C)C)NC(=O)[C@H](C)NC(=O)[C@H](C)NC(=O)CNC(=O)[C@H](CCC(=O)O)NC(=O)[C@H](CC(C)C)NC(=O)[C@H](CC(C)C)NC(=O)C(C)(C)NC(=O)[C@H](CO)NC(=O)[C@@H](NC(=O)[C@H](CC(=O)O)NC(=O)[C@H](CO)NC(=O)[C@@H](NC(=O)[C@H](Cc1ccccc1)NC(=O)[C@@H](NC(=O)CNC(=O)[C@H](CCC(=O)O)NC(=O)C(C)(C)NC(=O)[C@@H](N)Cc1c[nH]cn1)[C@@H](C)O)[C@@H](C)O)C(C)C)C(=O)N[C@@H](CCC(N)=O)C(=O)N[C@@H](Cc1c[nH]c2ccccc12)C(=O)N[C@@H](CC(C)C)C(=O)N[C@H](C(N)=O)C(C)C` [compound 179] (H-H[Aib]EGTFTSDVS[Aib]LLEGAALQRFIQWLV-NH2), the EC50 in data set [1] (read-out: hGLP1R pEC50 (converted)) was 0.0794 nM; in data set [3] (read-out: hSCTR pEC50 (converted)), 501 nM. In addition, the “SCTR EC50/GLP1R EC50 ratio” value in data set [1] (selectivity for hGLP1R over hSCTR, cAMP accumulation in CHO-K1 cells) was found to be 5995. In data set [2], the “Turbidity (pH 7)” value was 0.55. In data set [4], this molecule gave a Fibril formation of 22028.
